Measured values from patent US8969565B2, “Imidazo[1,2-b]pyridazine-based compounds, compositions comprising them, and methods of their use” (Lexicon Pharmaceuticals, Inc., priority 2012, dated 2015).

Biological target: T1, AAK1 (Homo sapiens, UniProt Q2M2I8)
T1 construct: HA; expressed in transfected cells; host or cells: HEK293F
Assay: HEK281 cell-based assay (phospho-mu2 Western blot in transfected HEK293F cells)
Conditions: 3 hours incubation, read-out: CBA IC50
Protocol: HEK293F cells were cultured in media containing DMEM (Gibco, cat. #11965), 10% FBS (SAFC Biosciences, cat. #12103C), 1×GPS (glutamine, penicillin and streptomycin). On day one, cells were plated on a 10 cm dish so that they are ˜80% confluent at time of transfection. Roughly 12 million cells were in a 10 cm dish at time of transfection. On day two, each dish was transfected with 48 ug DNA and 144 ul Lipofectamine 2000 (Invitrogen, cat.#11668-019). The DNA was comprised of a mixture (per 10 cm dish) containing 3 ug AAK1/HA/pIRES (full length human, NCBI accession no. NP_055726.2), 45 μg Flag/AP2MI/pcDNA (full length human), and 1.5 ml OPTI-MEM. The Lipofectamine 2000 is made up of a mixture (per 10 cm dish) containing 144 μl Lipofectamine 2000 and 1.5 ml OPTI-MEM. Each mixture was transferred to individual 15 ml tubes and incubated at RT for 5 minutes, and then the two mixes were combined and incubated at RT for 20 minutes. Growth media was then aspirated from each 10 cm plate and replaced with 10 ml of DMEM+10% FBS (no GPS). Finally, 3 ml DNA/Lipofectamine mix was added to each 10 cm dish and mix gently followed by incubate of plate overnight at 37° C. and 5% CO2.
On day three, compounds were diluted in 100% DMSO at 1000× final concentration, followed by 3-fold serial dilutions for a total of 5 concentrations tested. Four compounds were tested per 10 cm dish. One ul of each compound dilution was then pipetted into a deep-well, 96-well plate, followed by addition of 500 μl DMEM+0.5% FBS into each well for a 2× final concentration of each compound. Cells were resuspended in a 10 cm dish by simple pipetting (HEK293 cells come off the plate that easy at this point) and then transferred to a 50 ml conical tube and pelleted by centrifugation at 1000 rpm for 5 min. Cell pellets were then resuspended in 2.75 ml DMEM+0.5% FBS per 10 cm dish and 100 μl of cell suspension transferred into each well of 96-well TC plate. Finally, 100 μl of 2× compound diluted in DMEM+0.5% FBS was then added into wells containing cell suspension for a 1× final concentration. Plates were then incubated at 37° C. and 5% CO2 for 3 hours followed by transferring of cell suspensions from each well into 12-tube PCR strips. The PCR strips were spun in a tip rack at 1000 rpm for 5 minutes to pellet cells and media was then removed by pipetting without disturbing the cell pellet.
To prepare for Western Blot analysis, cell pellets were resuspend in 40 ul 1×LDS-PAGE sample buffer (Invitrogen, cat.#NP0008)+2× Halt phophatase and protease inhibitor cocktail (Thermo Scientific, cat.#1861284), followed by sonicating each with microtip sonicator set at 5 for 8-10 seconds. Five ul of 10× NuPage Sample Reducing Agent (with 50 mM DTT) was to each sample followed by heat denaturing at 70 C for 10 min on PCR machine. A total of 10 μl per sample was loaded into each lane of a 4-20% Tris-Glycine Criterion 26-well gel (Biorad, cat.#345-0034) for the phospho-mu2 blot and 10 μl per lane in a 4-12% Bis-Tris (+MES buffer) NuPAGE 26-well gel (Invitrogen, cat.#WG1403BX10) for the mu2 blot. For controls, 2 ng of phospho-mu2 or 20 ng mu2/Flag proteins were loaded in the last well of each gel. After SDS-PAGE, samples on each gel were transferred to PVDF membrane using an iBlot and membranes were blocked for one hour in TBST+5% milk, followed by wash 3× for 5-10 min with TBST. Criterion gels were probed with rabbit anti-phospho-mu2 (1:5000; a rabbit polyclonal antibody produced by New England Peptide and affinity purified at Lexicon) in TBST+5% BSA, whereas, NuPAGE gels were probed with mouse anti-Flag (1:500; Sigma, cat.#F1804) in TBST+5% milk, and these primary antibodies were incubated overnight at 4° C. on a rocker.

T1 sequence (Q2M2I8 1-863 isoform Q2M2I8-2): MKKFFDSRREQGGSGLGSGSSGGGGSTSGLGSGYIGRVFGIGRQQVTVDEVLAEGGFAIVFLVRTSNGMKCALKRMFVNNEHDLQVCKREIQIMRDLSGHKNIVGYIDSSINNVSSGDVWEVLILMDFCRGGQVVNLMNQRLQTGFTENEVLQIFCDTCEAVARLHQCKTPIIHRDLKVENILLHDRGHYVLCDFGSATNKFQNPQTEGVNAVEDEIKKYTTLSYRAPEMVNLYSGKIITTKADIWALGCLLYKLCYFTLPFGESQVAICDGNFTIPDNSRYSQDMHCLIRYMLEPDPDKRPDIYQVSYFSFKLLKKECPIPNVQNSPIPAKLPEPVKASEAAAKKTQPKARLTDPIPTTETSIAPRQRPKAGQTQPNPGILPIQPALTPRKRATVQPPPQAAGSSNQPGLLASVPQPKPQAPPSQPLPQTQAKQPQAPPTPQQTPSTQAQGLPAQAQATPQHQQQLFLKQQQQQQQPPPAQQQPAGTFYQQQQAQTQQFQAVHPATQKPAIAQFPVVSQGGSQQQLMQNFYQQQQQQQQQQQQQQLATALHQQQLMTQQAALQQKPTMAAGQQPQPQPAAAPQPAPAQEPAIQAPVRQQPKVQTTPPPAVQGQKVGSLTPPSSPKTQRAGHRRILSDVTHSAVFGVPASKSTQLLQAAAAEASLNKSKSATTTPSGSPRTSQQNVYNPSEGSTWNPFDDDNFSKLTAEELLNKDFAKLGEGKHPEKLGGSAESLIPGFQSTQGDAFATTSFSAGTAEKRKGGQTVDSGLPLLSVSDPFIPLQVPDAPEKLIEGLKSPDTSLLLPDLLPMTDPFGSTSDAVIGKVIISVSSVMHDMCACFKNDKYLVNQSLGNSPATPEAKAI

| Structure (SMILES) | IC50 |
| --- | --- |
| C=C(C)c1cnc2ccc(NC[C@@H]3CCCN3C(=O)OC(C)C)nn12 [(S)-isopropyl 2-(((3-(prop-1-en-2-yl)imidazo[1,2-b]pyridazin-6-yl)amino)methyl)pyrrolidine-1-carboxylate] | ≤ 100 nM |
| CCOC(=O)N(CCNc1ccc2ncc(-c3ccncc3OC)n2n1)C(C)C [ethyl isopropyl(2-((3-(3-methoxypyridin-4-yl)imidazo[1,2-b]pyridazin-6-yl)amino)ethyl)carbamate] | ≤ 10 nM |
| CCCNc1ccc2ncc(-c3ccc(C(C)=O)s3)n2n1 [1-(5-(6-(propylamino)imidazo[1,2-b]pyridazin-3-yl)thiophen-2-yl)ethanone] | ≤ 1000 nM |
| CCCCNc1ccc2ncc(-c3ccc(C(=O)NCCN)c(OC)c3)n2n1 [N-(2-aminoethyl)-4-(6-(butylamino)imidazo[1,2-b]pyridazin-3-yl)-2-methoxybenzamide] | ≤ 1000 nM |
| NCc1ccc(-c2cnc3ccc(NCC4CCC4)nn23)cc1 [3-(4-(aminomethyl)phenyl)-N-(cyclobutylmethyl)imidazo[1,2-b]pyridazin-6-amine] | ≤ 1000 nM |
| CC(C)(C)OC(=O)N1CCC[C@H]1CNc1ccc2ncc(Cl)n2n1 [(S)-tert-butyl 2-(((3-chloroimidazo[1,2-b]pyridazin-6-yl)amino)methyl)pyrrolidine-1-carboxylate] | ≤ 100 nM |
| COc1cnccc1-c1cnc2ccc(NCCN3CCN(C(C)(C)C)C3=O)nn12 [1-(tert-butyl)-3-(2-((3-(3-methoxypyridin-4-yl)imidazo[1,2-b]pyridazin-6-yl)amino)ethyl)imidazolidin-2-one] | ≤ 100 nM |
| NCc1ccc(-c2cnc3ccc(NCCc4ccccc4F)nn23)cc1 [3-(4-(aminomethyl)phenyl)-N-(2-fluorophenethyl)imidazo[1,2-b]pyridazin-6-amine] | ≤ 100 nM |
| CCCCNc1ccc2ncc(-c3ccc(CNCCCN)cc3)n2n1 [N1-(4-(6-(butylamino)imidazo[1,2-b]pyridazin-3-yl)benzyl)propane-1,3-diamine] | ≤ 1000 nM |
| CCCCNc1ccc2ncc(-c3ccc(C(=O)NCCNC)c(F)c3)n2n1 [4-(6-(butylamino)imidazo[1,2-b]pyridazin-3-yl)-2-fluoro-N-(2-(methylamino)ethyl)benzamide] | ≤ 100 nM |
| CNC(=O)c1cnc2ccc(N3CCN(C(=O)OC(C)C)CC3)nn12 [isopropyl 4-(3-(methylcarbamoyl)imidazo[1,2-b]pyridazin-6-yl)piperazine-1-carboxylate] | ≤ 100 nM |
| CCc1cnc2ccc(NC[C@@H]3CCCN3C(=O)OC(C)(C)C)nn12 [(S)-tert-butyl 2-(((3-ethylimidazo[1,2-b]pyridazin-6-yl)amino)methyl)pyrrolidine-1-carboxylate] | ≤ 100 nM |
| CC(C)OC(=O)N1CCC[C@H]1CNc1ccc2ncc(Br)n2n1 [(S)-isopropyl 2-(((3-bromoimidazo[1,2-b]pyridazin-6-yl)amino)methyl)pyrrolidine-1-carboxylate] | ≤ 1000 nM |
| CC(C)OC(=O)N(C)CCNc1ccc2ncc(-c3cn[nH]c3)n2n1 [isopropyl (2-((3-(1H-pyrazol-4-yl)imidazo[1,2-b]pyridazin-6-yl)amino)ethyl)(methyl)carbamate] | ≤ 100 nM |
| CCOC(=O)N(CCNc1ccc2ncc(-c3ccc(C(N)=O)cc3)n2n1)C(C)C [ethyl (2-((3-(4-carbamoylphenyl)imidazo[1,2-b]pyridazin-6-yl)amino)ethyl)(isopropyl)carbamate] | ≤ 100 nM |
| CC(C)(C)COCCNc1ccc2ncc(-c3ccc(CN)cc3)n2n1 [3-(4-(aminomethyl)phenyl)-N-(2-(neopentyloxy)ethyl)imidazo[1,2-b]pyridazin-6-amine] | ≤ 100 nM |
| COc1cccc(-c2cnc3ccc(NCCN(C)C(=O)OC(C)(C)C)nn23)c1 [tert-butyl (2-((3-(3-methoxyphenyl)imidazo[1,2-b]pyridazin-6-yl)amino)ethyl)(methyl)carbamate] | ≤ 100 nM |

| Structure (SMILES) | IC50 |
| --- | --- |
| COc1cnccc1-c1cnc2ccc(NCCOC3CCCC3)nn12 [N-(2-(cyclopentyloxy)ethyl)-3-(3-methoxypyridin-4-yl)imidazo[1,2-b]pyridazin-6-amine] | ≤ 1000 nM |
| CC(C)OC(=O)N(C)CCNc1ccc2ncc(-c3ccc([C@H]4CCCN4)cc3)n2n1 [(R)-isopropyl methyl(2-((3-(4-(pyrrolidin-2-yl)phenyl)imidazo[1,2-b]pyridazin-6-yl)amino)ethyl)carbamate] | ≤ 100 nM |
| CCN(CCNc1ccc2ncc(-c3ccc(C(=O)NC)cc3)n2n1)C(=O)OC(C)C [isopropyl ethyl(2-((3-(4-(methylcarbamoyl)phenyl)imidazo[1,2-b]pyridazin-6-yl)amino)ethyl)carbamate] | ≤ 100 nM |
| NCc1ccc(-c2cnc3ccc(NC4CCCCC4)nn23)cc1 [[3-(4-Aminomethyl-phenyl)-imidazo[1,2-b]pyridazin-6-yl]-cyclohexylamine] | ≤ 1000 nM |
| NCCCOc1ccc(-c2cnc3ccc(NCCCc4ccccc4)nn23)cc1 [3-(4-(3-aminopropoxy)phenyl)-N-(3-phenylpropyl)imidazo[1,2-b]pyridazin-6-amine] | ≤ 100 nM |
| CC(C)(C)OC(=O)N1CCC[C@H]1CNc1ccc2ncc(I)n2n1 [(S)-tert-butyl 2-(((3-iodoimidazo[1,2-b]pyridazin-6-yl)amino)methyl)pyrrolidine-1-carboxylate] | ≤ 10 nM |
| COc1cccc(CCNc2ccc3ncc(-c4ccc(CN)cc4)n3n2)c1 [3-(4-(aminomethyl)phenyl)-N-(3-methoxyphenethyl)imidazo[1,2-b]pyridazin-6-amine] | ≤ 100 nM |
| CCOC(=O)N(C)CCNc1ccc2ncc(-c3ccc(C(=O)NC)s3)n2n1 [ethyl methyl(2-((3-(5-(methylcarbamoyl)thiophen-2-yl)imidazo[1,2-b]pyridazin-6-yl)amino)ethyl)carbamate] | ≤ 100 nM |
| COc1ccc(CCNc2ccc3ncc(-c4ccc(CN)cc4)n3n2)cc1 [3-(4-(aminomethyl)phenyl)-N-(4-methoxyphenethyl)imidazo[1,2-b]pyridazin-6-amine] | ≤ 100 nM |
| NC(=O)c1ccc(-c2cnc3ccc(NCCc4cccc(C(F)(F)F)c4)nn23)cc1 [4-(6-((3-(trifluoromethyl)phenethyl)amino)imidazo[1,2-b]pyridazin-3-yl)benzamide] | ≤ 100 nM |
| CC(C)OCCNc1ccc2ncc(-c3cc[nH]n3)n2n1 [N-(2-isopropoxyethyl)-3-(1H-pyrazol-3-yl)imidazo[1,2-b]pyridazin-6-amine] | ≤ 1000 nM |
| CCOC(=O)N(C)CCNc1ccc2ncc(-c3ccc(C(=O)NC(C)(C)C)cc3)n2n1 [ethyl (2-((3-(4-(tert-butylcarbamoyl)phenyl)imidazo[1,2-b]pyridazin-6-yl)amino)ethyl)(methyl)carbamate] | ≤ 100 nM |
| COC(=O)N1CCC[C@H]1CNc1ccc2ncc(-c3ccc(CN)cc3)n2n1 [(S)-methyl 2-(((3-(4-(aminomethyl)phenyl)imidazo[1,2-b]pyridazin-6-yl)amino)methyl)pyrrolidine-1-carboxylate] | ≤ 100 nM |
| NCc1ccc(-c2cnc3ccc(NC4COC5(CCCC5)C4)nn23)cc1 (stereo not drawn) [3-(4-(aminomethyl)phenyl)-N-(1-oxaspiro[4.4]nonan-3-yl)imidazo[1,2-b]pyridazin-6-amine] | ≤ 100 nM |
| CC(C)OC(=O)N(CCNc1ccc2ncc(-c3ccccc3)n2n1)C(C)C [isopropyl isopropyl(2-((3-phenylimidazo[1,2-b]pyridazin-6-yl)amino)ethyl)carbamate] | ≤ 100 nM |
| NCc1ccc(-c2cnc3ccc(NCCOc4ccccc4)nn23)cc1 [3-(4-(aminomethyl)phenyl)-N-(2-phenoxyethyl)imidazo[1,2-b]pyridazin-6-amine] | ≤ 1000 nM |
